The assay has as its system L6. In words: Antidiabetic activity in rat L6 cells assessed as stimulation of glucose uptake at 10 uM. The assay is classed as functional.

The structures appear in SMILES notation.

As for `C=C1CC[C@@H]2[C@](C)(CCC[C@]2(C)C(=O)N2CCN(c3ccc(C)cc3)CC2)[C@H]1CC[C@H](C)CCOC(C)=O`, the Activity is recorded as 2.21%.
Take `C=C1CC[C@@H]2[C@](C)(CCC[C@]2(C)C(=O)N2CCN(c3ccccc3)CC2)[C@H]1CC[C@H](C)CCOC(C)=O`: the Activity is on record as 24.14%.
With `C=C1CC[C@@H]2[C@](C)(CCC[C@]2(C)C(=O)OC)[C@H]1CC[C@H](C)CCOC(=O)CN1CCN(c2ccccc2)CC1`, the Activity turned out to be 29.51%.
Take `C=C1CC[C@@H]2[C@](C)(CCC[C@]2(C)C(=O)OC)[C@H]1CC[C@H](C)CCOC(=O)CN1CCN(c2ccc(F)cc2)CC1`: the Activity turned out to be 28.86%.
`C=C1CC[C@@H]2[C@](C)(CCC[C@]2(C)C(=O)OC)[C@H]1CC[C@H](C)CCOC(=O)CN1CCN(c2cccc(OC)c2)CC1`: the Activity was 40.9%.
With `C=C1CC[C@@H]2[C@](C)(CCC[C@]2(C)C(=O)N2CCN(C(C)=O)CC2)[C@H]1CC[C@H](C)CCOC(C)=O`, the Activity is on record as -1.96%.
For the molecule `C=C1CC[C@@H]2[C@](C)(CCC[C@]2(C)C(=O)OC)[C@H]1CC[C@H](C)CCOC(=O)CN1CCN(C/C=C/c2ccccc2)CC1`, the Activity stood at 18.58%.
Regarding `C=C1CC[C@@H]2[C@](C)(CCC[C@]2(C)C(=O)OC)[C@H]1CC[C@H](C)CCOC(=O)CN1CCN(c2ccc(Cl)cc2)CC1`, the Activity is on record as 39.55%.
On to `C=C1CC[C@@H]2[C@](C)(CCC[C@]2(C)C(=O)N2CCN(C)CC2)[C@H]1CC[C@H](C)CCOC(C)=O`, for which the Activity is -10.16%.
Take `C=C1CC[C@@H]2[C@](C)(CCC[C@]2(C)C(=O)N2CCN(c3ccc(Cl)cc3)CC2)[C@H]1CC[C@H](C)CCOC(C)=O`: the Activity was 40.79%.
As for `CN(CCOc1ccc(CC2SC(=O)NC2=O)cc1)c1ccccn1` (stereo not drawn) [ROSIGLITAZONE], the Activity is recorded as 54.5%.
On to `C=C1CC[C@@H]2[C@](C)(CCC[C@]2(C)C(=O)OC)[C@H]1CC[C@H](C)CCOC(=O)CN1CCN(c2ccc(C)cc2)CC1`, for which the Activity was 15.27%.
Turning to `C=C1CC[C@@H]2[C@](C)(CCC[C@]2(C)C(=O)N2CCN(C/C=C/c3ccccc3)CC2)[C@H]1CC[C@H](C)CCOC(C)=O`, the Activity was 16.3%.
As to `C=C1CC[C@@H]2[C@](C)(CCC[C@]2(C)C(=O)N2CCN(c3cccc(OC)c3)CC2)[C@H]1CC[C@H](C)CCOC(C)=O`, the Activity was determined as 54.73%.
As for `C=C1CC[C@@H]2[C@](C)(CCC[C@]2(C)C(=O)N2CCN(c3ccc(F)cc3)CC2)[C@H]1CC[C@H](C)CCOC(C)=O`, the Activity amounted to 22.45%.
With `C=C1CC[C@@H]2[C@](C)(CCC[C@]2(C)C(=O)OC)[C@H]1CC[C@H](C)CCOC(=O)CN1CCN(C)CC1`, the Activity is on record as -3.75%.
Turning to `C=C1CC[C@@H]2[C@](C)(CCC[C@]2(C)C(=O)OC)[C@H]1CC[C@H](C)CCOC(=O)CN1CCN(C(C)=O)CC1`, the Activity is on record as -5.9%.
Turning to `C=C1CC[C@@H]2[C@](C)(CCC[C@]2(C)C(=O)O)[C@H]1CC[C@H](C)CCO` [IMBRICATOLIC ACID], the Activity was determined as 34.41%.

For the origin of these results see ChEMBL document CHEMBL2046285, “Synthesis of novel imbricatolic acid analogues via insertion of N-substituted piperazine at C-15/C-19 positions, displaying glucose uptake stimulation in L6 skeletal muscle cells” (2012).
